Laboratory results from patent publication US20230126987A1, “METHODS FOR TREATING CYTOKINE STORM SYNDROME AND RELATED DISEASES” (Generos Biopharma Ltd., priority 2020, published 2023).

Assays:
H5N1 virus = settings: co-administration with zanamivir, compared to antiviral treatment alone; cited from earlier work
[1] = test system: LPS-induced pro-inflammatory cytokines; test: LPS-induced sepsis model in mice, plasma cytokines by ELISA; assay type: in vivo, Balb/c mice; settings: i.p. 1 hour before LPS 10 mg/kg i.p., DEX 3 mg/kg, Nib1 5 mg/kg, 4 hours after LPS
Method: FIGS. 2A and 2B show the cytokine levels of TNFα and IL-6, respectively, in serum as measured by an ELISA kit. […] Whole blood was collected at 4 hours after LPS injection, and the plasma was extracted for ELISA measurement. *indicates P<0.05, **indicates P<0.01, *** indicates P<0.001, and **** indicates P<0.0001.
After 1 hour, all the animals were exposed to lethal dose of LPS (10 mg/kg, 2 mg/mL, i.p., Solarbio L8880). All animals were sacrificed 4 hours after LPS injection for tissue and whole blood collection.
FIGS. 2A and 2B show the cytokine levels of TNFα and IL-6, respectively, in the serum as measured by an ELISA kit. […] Whole blood was collected at 4 hours after LPS injection and plasma was extracted for ELISA measurement. *indicates P<0.05, **indicates P<0.01, *** indicates P<0.001, and **** indicates P<0.0001.

STAT5 = STAT5 inhibition in Jurkat cells, immunoblotting of IFNβ-induced STAT5 phosphorylation (pY694)
[2] = test system: LPS-induced pro-inflammatory cytokines; test: Repetitive low dose LPS challenge sepsis-like persistent inflammation model in mice, whole blood cell cytokine RT-qPCR; assay type: in vivo, Balb/c mice; settings: LPS 10 µg/mouse i.p. daily for 4 days, oral DEX 3 mg/kg or Nib1 0.6 mg/kg daily, whole blood cells RT-qPCR
Text: FIGS. 4A, 4B, and 4C show the cytokine levels of IL-1β, IL-6, and TNFα, respectively, in the whole blood cells as measured by RT-qPCR. […] At the end of experiment, whole blood cells were collected and the total RNA was extracted for RT-qPCR measurement of the cytokine mRNA. *indicates P<0.05, **indicates P<0.01, *** indicates P<0.001.
At the end of the experiment, all animals were sacrificed, and whole blood cells were purified by centrifugation and subjected to standard RT-qPCR detection of IL-6 and TNFα mRNA levels according to the manufacturer’s instructions.

[3] = test system: LPS-induced pro-inflammatory cytokines; test: LPS-induced acute lung injury model in mice, BALF cytokines by ELISA; settings: airway LPS 1 µg day 1
human PBMC = test: LPS-induced cytokine release in human PBMC, Luminex multiplex cytokine profiling; assay type: cell-based; settings: 10 µM 1 h before LPS 100 ng/ml for 4 h; supernatant; relative to DMSO = 100%
H2N2 influenza virus = settings: intraperitoneally on days 4 to 10 after exposure to H2N2 influenza virus, following the onset of illness; cited from earlier work
[4] = test system: RSV-infected lung epithelial cells; settings: cited from earlier work
[5] = 3 mg/kg po qd 4 days, compared to DMSO-treated group, p<0.05

SMILES: Nc1ccc(O)c(C(=O)O)c1 [Mesalamine]
- cellular infiltrate (H5N1 virus): diminished cellular infiltrate
- survival (H5N1 virus): improved survival

SMILES: O=c1[nH]c2ccccc2n1C1CCN(CCCC(c2ccc(F)cc2)c2ccc(F)cc2)CC1 [pimozide, 1-[1-[4,4-bis(4-fluorophenyl)butyl]-4-piperidinyl]-1,3-dihydro-2H-benzimidazole-2-one]
- plasma level of TNFα ([1]; vs DMSO (DEX p<0.0001, Nib1 p<0.01)): significantly reduced
- plasma level of IL-6 ([1]; vs DMSO (DEX p<0.01, Nib1 p<0.001)): significantly reduced
- reduction of the activation of STAT5 (phosphorylation) (STAT5; Jurkat cells pretreated with 10 µM for 1 hour, then IFNβ 50 ng/ml for 30 min): more than 50%
- Phospho-STAT5 signal (STAT5; Jurkat cells treated with 50 µM, IFNβ 50 ng/ml for 30 min): completely undetectable
- TNFα level ([2]; TNFα returned to basal level): no difference was detected
- IL-1β level ([2]; vs DMSO (DEX p<0.05, Nib1 p<0.001)): significantly reduced
- IL-6 level ([2]; vs DMSO (both p<0.05)): significantly reduced
- level of IL-6 in bronchoalveolar lavage fluid ([3]; 0.6 mg/kg po qd 4 days, vs DMSO, p<0.001): significantly reduced
- level of TNFα in bronchoalveolar lavage fluid ([3]; 0.6 mg/kg po qd 4 days, vs DMSO, p<0.01): significantly reduced
- secretion of IL4 (human PBMC): significantly reduced
- secretion of IL17A (human PBMC): significantly reduced
- secretion of IL23 (human PBMC): significantly reduced
- secretion of IL-1β (human PBMC): significantly reduced
- secretion of IL-6 (human PBMC): significantly reduced

SMILES: Cc1ccc(C)c(OCCCC(C)(C)C(=O)O)c1 [gemfibrozil]
- survival (H2N2 influenza virus): significantly increased survival

SMILES: CCCCC/C=C/C=C1/C(=O)C=C[C@@H]1C/C=C\CCCC(=O)O [15d-PGJ2]
- production of IL-1α, IL-6, and TNF cytokines, CXCL8 and CCL5 chemokines, and ICAM-1 [4]: decreased production

SMILES: CC(=O)OCC(=O)[C@@]1(O)[C@H](C)C[C@H]2[C@@H]3CCC4=CC(=O)C=C[C@]4(C)[C@@]3(F)[C@@H](O)C[C@@]21C [DEX, dexamethasone acetate]
- reduction of IL-6 level in bronchoalveolar lavage fluid [3, 5]: about 50%
- reduction of TNFα level in bronchoalveolar lavage fluid [3, 5]: about 50%
